According to PubChem BioAssay AID1963963 (Molecular Pharmacology Branch, DTP, NCI, 2024):

Tested on: 958667-338-R-J2-PDC tumor spheroids viability
Assay: Anticancer human tumor 958667-338-R-J2-PDC patient-derived colon adenocarcinoma cell line growth inhibition [PI3K]
Conditions: spheroids with HUVEC and MSC; for IC50: curve of first compound; for viability, T/C: stronger effect = lower value; active = viability on the fitted dose curve at most 10% of control; inactive = the rest
Outline: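 Tumor cells grown as multi-cell spheroids with HUVEC endothelial cells and MSC fibroblast-like stroma were treated with targeted agents combined with inavolisib, alpelisib, duvelisib or copanlisib. Doses fell in half-log steps from near clinical Cmax, else from 10 microM. Viability was measured.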
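Note: spheroids exposed to compounds for seven days before readout.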

CC(C)n1nc(-c2ccc3oc(N)nc3c2)c2c(N)ncnc21 + CC(Nc1ncnc2nc[nH]c12)c1cc2cccc(Cl)c2c(=O)n1-c1ccccc1
61.4 nM: IC50 (second compound 10 µM)
inactive: viability, T/C (second compound 0.0316 µM, first compound 0.000316 µM) 96.8% | viability, T/C (second compound 0.0316 µM, first compound 0.001 µM) 95.3% | viability, T/C (second compound 0.0316 µM, first compound 0.00316 µM) 98.5% | viability, T/C (second compound 0.0316 µM, first compound 0.01 µM) 112% | viability, T/C (second compound 0.0316 µM, first compound 0.0316 µM) 73.6% | viability, T/C (second compound 0.0316 µM, first compound 0.1 µM) 42.1% | viability, T/C (second compound 0.1 µM, first compound 0.000316 µM) 127% | viability, T/C (second compound 0.1 µM, first compound 0.001 µM) 101% | viability, T/C (second compound 0.1 µM, first compound 0.00316 µM) 107% | viability, T/C (second compound 0.1 µM, first compound 0.01 µM) 92.8% | viability, T/C (second compound 0.1 µM, first compound 0.0316 µM) 74.7% | viability, T/C (second compound 0.1 µM, first compound 0.1 µM) 39.4% | viability, T/C (second compound 0.316 µM, first compound 0.000316 µM) 95.2% | viability, T/C (second compound 0.316 µM, first compound 0.001 µM) 84.7% | viability, T/C (second compound 0.316 µM, first compound 0.00316 µM) 90.8% | viability, T/C (second compound 0.316 µM, first compound 0.01 µM) 98.9% | viability, T/C (second compound 0.316 µM, first compound 0.0316 µM) 69.2% | viability, T/C (second compound 0.316 µM, first compound 0.1 µM) 44.7% | viability, T/C (second compound 1 µM, first compound 0.000316 µM) 95.2% | viability, T/C (second compound 1 µM, first compound 0.001 µM) 92.8% | viability, T/C (second compound 1 µM, first compound 0.00316 µM) 82.4% | viability, T/C (second compound 1 µM, first compound 0.01 µM) 100% | viability, T/C (second compound 1 µM, first compound 0.0316 µM) 73.9% | viability, T/C (second compound 1 µM, first compound 0.1 µM) 45.4% | viability, T/C (second compound 3.16 µM, first compound 0.000316 µM) 86% | viability, T/C (second compound 3.16 µM, first compound 0.001 µM) 91.4% | viability, T/C (second compound 3.16 µM, first compound 0.00316 µM) 98.5% | viability, T/C (second compound 3.16 µM, first compound 0.01 µM) 89.3% | viability, T/C (second compound 3.16 µM, first compound 0.0316 µM) 60.7% | viability, T/C (second compound 3.16 µM, first compound 0.1 µM) 41.2% | viability, T/C (second compound 10 µM, first compound 0.000316 µM) 100% | viability, T/C (second compound 10 µM, first compound 0.001 µM) 75.1% | viability, T/C (second compound 10 µM, first compound 0.00316 µM) 70.4% | viability, T/C (second compound 10 µM, first compound 0.01 µM) 83.5% | viability, T/C (second compound 10 µM, first compound 0.0316 µM) 71.8% | viability, T/C (second compound 10 µM, first compound 0.1 µM) 33.7%
82.9 nM: IC50 (second compound 1 µM)
74.9 nM: IC50 (second compound 0.0316 µM)
71.7 nM: IC50 (second compound 0.1 µM)
59.3 nM: IC50 (second compound 3.16 µM)
77.9 nM: IC50 (second compound 0.316 µM)
